Common to all, as to format: cell-based
The target in test [1] is T1, Protein cereblon/Androgen receptor (Homo sapiens, UniProt P10275+Q96SW2). As to the kind of experiment: PROTAC activity at CRBN/AR in human 22Rv1 cells assessed as induction of AR degradation at 1 uM incubated for 24 hrs by Western blot analysis relative to control.
The target in test [2] is T1, Protein cereblon/Androgen receptor. As to the kind of experiment: PROTAC activity at CRBN/AR in human 22Rv1 cells assessed as induction of AR degradation at 5 uM incubated for 24 hrs by Western blot analysis relative to control. Background: Immunoblotting shows a protein as a band on a membrane.
The test system of test [3] is Protein cereblon/Androgen receptor (Homo sapiens), P10275+Q96SW2 [UNDEFINED MUTATION]. The test is described as follows: PROTAC activity at CRBN/Androgen receptor splice variant 7 in human 22Rv1 cells assessed as induction of AR-V7 degradation at 1 uM incubated for 24 hrs by Western blot analysis relative to control.
Test [4] shares this test system. The test is described as follows: PROTAC activity at CRBN/Androgen receptor splice variant 7 in human 22Rv1 cells assessed as induction of AR-V7 degradation at 5 uM incubated for 24 hrs by Western blot analysis relative to control.
Test [5] concerns the target T1, Protein cereblon/Androgen receptor. The test is described as follows: PROTAC activity at CRBN/AR in human VCaP cells assessed as induction of AR degradation at 1 uM incubated for 24 hrs by Western blot analysis relative to control.
For test [6] the target is unchanged. The test is described as follows: PROTAC activity at CRBN/AR in human VCaP cells assessed as induction of AR degradation at 5 uM incubated for 24 hrs by Western blot analysis relative to control.
The subject of test [7] is Protein cereblon/Androgen receptor (Homo sapiens), P10275+Q96SW2 [UNDEFINED MUTATION]. The test is described as follows: PROTAC activity at CRBN/Androgen receptor splice variant 7 in human VCaP cells assessed as induction of AR-V7 degradation at 1 uM incubated for 24 hrs by Western blot analysis relative to control.
The test system is the same in test [8]. The test is described as follows: PROTAC activity at CRBN/Androgen receptor splice variant 7 in human VCaP cells assessed as induction of AR-V7 degradation at 5 uM incubated for 24 hrs by Western blot analysis relative to control.
For test [9], the target named is T2, Protein cereblon/Eukaryotic peptide chain release factor GTP-binding subunit ERF3A (Homo sapiens, UniProt Q96SW2+P15170). The test is described as follows: Molecular glue activity at CRBN/GSPT1 in human 22Rv1 cells assessed as induction of GSPT1 degradation at 1 uM incubated for 24 hrs by Western blot analysis relative to control.
Test [10] has as its target T2, Protein cereblon/Eukaryotic peptide chain release factor GTP-binding subunit ERF3A. The test is described as follows: Molecular glue activity at CRBN/GSPT1 in human 22Rv1 cells assessed as induction of GSPT1 degradation at 5 uM incubated for 24 hrs by Western blot analysis relative to control.

The record followed here is ChEMBL document CHEMBL6177998, “Rational Design of Dual Degraders by Incorporating Molecular Glue Structural Features into PROTAC Degraders” (J Med Chem, 2025).

Structures are written as SMILES.

Chain of Protein cereblon/Androgen receptor (Homo sapiens), P10275+Q96SW2 [UNDEFINED MUTATION] (P10275 whole entry, looked up, change not shown, canonical isoform): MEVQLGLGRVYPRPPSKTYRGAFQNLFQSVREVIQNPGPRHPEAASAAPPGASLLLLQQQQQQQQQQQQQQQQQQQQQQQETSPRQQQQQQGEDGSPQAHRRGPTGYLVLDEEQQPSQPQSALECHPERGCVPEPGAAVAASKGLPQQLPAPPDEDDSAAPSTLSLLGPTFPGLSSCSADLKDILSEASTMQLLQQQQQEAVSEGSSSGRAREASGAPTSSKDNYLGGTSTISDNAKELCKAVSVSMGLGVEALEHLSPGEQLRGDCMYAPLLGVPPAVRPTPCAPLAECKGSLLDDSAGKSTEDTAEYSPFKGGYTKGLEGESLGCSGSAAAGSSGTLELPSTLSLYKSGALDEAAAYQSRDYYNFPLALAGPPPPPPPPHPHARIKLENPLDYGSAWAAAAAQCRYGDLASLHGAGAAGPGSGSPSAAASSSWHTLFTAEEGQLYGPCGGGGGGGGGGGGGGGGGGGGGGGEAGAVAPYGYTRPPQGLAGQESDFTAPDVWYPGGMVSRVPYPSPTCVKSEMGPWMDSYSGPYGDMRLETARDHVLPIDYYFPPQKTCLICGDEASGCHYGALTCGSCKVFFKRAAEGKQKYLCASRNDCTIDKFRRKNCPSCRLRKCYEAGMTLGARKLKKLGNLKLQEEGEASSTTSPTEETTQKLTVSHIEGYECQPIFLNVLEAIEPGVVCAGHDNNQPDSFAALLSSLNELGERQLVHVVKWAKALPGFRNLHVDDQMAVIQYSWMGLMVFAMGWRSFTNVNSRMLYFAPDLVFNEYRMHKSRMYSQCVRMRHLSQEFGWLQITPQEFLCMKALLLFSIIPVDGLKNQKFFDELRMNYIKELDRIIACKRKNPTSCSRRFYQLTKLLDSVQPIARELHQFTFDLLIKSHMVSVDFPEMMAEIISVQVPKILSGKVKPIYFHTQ
Chain of Protein cereblon/Androgen receptor (Homo sapiens), P10275+Q96SW2 [UNDEFINED MUTATION] (Q96SW2 whole entry, looked up, change not shown, canonical isoform): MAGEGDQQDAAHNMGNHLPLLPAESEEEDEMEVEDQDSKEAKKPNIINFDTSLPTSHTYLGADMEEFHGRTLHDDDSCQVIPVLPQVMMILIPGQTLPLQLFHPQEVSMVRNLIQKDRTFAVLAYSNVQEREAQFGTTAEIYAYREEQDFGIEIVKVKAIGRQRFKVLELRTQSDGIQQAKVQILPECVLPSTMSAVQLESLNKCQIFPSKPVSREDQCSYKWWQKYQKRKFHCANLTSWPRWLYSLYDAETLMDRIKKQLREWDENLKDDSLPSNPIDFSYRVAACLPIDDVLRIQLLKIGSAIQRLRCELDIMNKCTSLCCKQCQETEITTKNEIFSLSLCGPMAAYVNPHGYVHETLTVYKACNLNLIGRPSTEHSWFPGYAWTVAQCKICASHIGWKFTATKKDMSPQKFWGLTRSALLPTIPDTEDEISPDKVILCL
T1 sequence (P10275 whole entry, looked up): as the sequence (P10275 whole entry, looked up, change not shown, canonical isoform) above
T1 sequence (Q96SW2 whole entry, looked up): as the sequence (Q96SW2 whole entry, looked up, change not shown, canonical isoform) above
T2 sequence (P15170 whole entry, looked up): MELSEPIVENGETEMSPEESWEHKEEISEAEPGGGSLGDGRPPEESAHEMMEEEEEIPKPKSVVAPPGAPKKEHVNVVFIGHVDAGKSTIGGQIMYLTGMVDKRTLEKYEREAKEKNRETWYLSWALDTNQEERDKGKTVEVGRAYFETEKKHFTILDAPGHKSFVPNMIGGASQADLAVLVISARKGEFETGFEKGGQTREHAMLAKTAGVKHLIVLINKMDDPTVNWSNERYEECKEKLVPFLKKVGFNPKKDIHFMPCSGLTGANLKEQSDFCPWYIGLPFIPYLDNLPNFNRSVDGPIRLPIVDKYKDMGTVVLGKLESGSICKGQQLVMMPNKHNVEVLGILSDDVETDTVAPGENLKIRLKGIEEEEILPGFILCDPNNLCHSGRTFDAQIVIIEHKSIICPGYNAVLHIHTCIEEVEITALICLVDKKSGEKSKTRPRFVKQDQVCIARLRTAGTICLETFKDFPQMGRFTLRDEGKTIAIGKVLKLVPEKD
T2 sequence (Q96SW2 whole entry, looked up): as the sequence (Q96SW2 whole entry, looked up, change not shown, canonical isoform) above

As for `CC(C)(c1ccc(OCC2CCN(C(=O)CCCCCCNc3cccc4c3C(=O)N(C3CCC(=O)NC3=O)C4=O)CC2)cc1)c1ccc(OC[C@H](O)CCl)cc1` (stereo not given in full), the Activity in test [1] was 10.1%; in [2], 38%; in test [3], less than 5%; in test [4], 11%; in [5], less than 5%; in test [6], less than 5%. Moreover, the Activity in test [7] is less than 5%; in test [8] it was 9.2%; in [9], 36.5%; in [10] it was 39.8%.

Regarding `CC(C)(c1ccc(OCC2CCN(C(=O)CCCCOc3ccc4c(c3)C(=O)N(C3CCC(=O)NC3=O)C4=O)CC2)cc1)c1ccc(OC[C@H](O)CCl)cc1` (stereo not given in full), the Activity in test [1] was less than 5%; in test [2], 32.3%; in test [3], 33.3%; in test [4], 56%; in test [5], less than 5%; in test [6], less than 5%. The Activity in test [7] is less than 5%; in test [8] it was less than 5%; in [9], 29.6%; in [10], 44.4%.

For the compound `CC(C)(c1ccc(OCC2CCN(C3CN(C(=O)CCCCNc4ccc5c(c4)C(=O)N(C4CCC(=O)NC4=O)C5=O)C3)CC2)cc1)c1ccc(OC[C@H](O)CCl)cc1` (stereo not given in full), the Activity in test [1] is 13.5%; in [2], less than 5%; in test [3], 5%; in test [4] it was less than 5%; in test [5], 17.7%; in test [6], 40.9%. The Activity came to 14.9% in [7], 6.4% in test [8], 33.8% in [9] and 41.2% in [10].

For the compound `CC(C)(c1ccc(OCC2CCN(C(=O)CCCCCCCNc3ccc4c(c3)C(=O)N(C3CCC(=O)NC3=O)C4=O)CC2)cc1)c1ccc(OC[C@H](O)CCl)cc1` (stereo not given in full), the Activity was less than 5% in test [1]; 7.5% in [2]; less than 5% in [3]; less than 5% in test [4]; 4.9% in [5]; 10.2% in test [6]. Moreover, the Activity was less than 5% in test [7], 7% in [8], 37.2% in test [9] and 42% in [10].

As to `CC(C)(c1ccc(OCC2CCN(C(=O)CCCCC#Cc3ccc4c(c3)C(=O)N(C3CCC(=O)NC3=O)C4=O)CC2)cc1)c1ccc(OC[C@H](O)CCl)cc1` (stereo not given in full), the Activity in [1] is 13.7%; in test [2] it was less than 5%; in test [3] it was 34.8%; in test [4], 14.6%; in [5], less than 5%; in test [6], 18.6%. Also, the Activity in test [7] is less than 5%; in test [8], 26.4%; in test [9] it was 25.5%; in test [10], 30.7%.

Consider `CC(C)(c1ccc(OCC2CCN(C(=O)CCCCNc3cccc4c3C(=O)N(C3CCC(=O)NC3=O)C4=O)CC2)cc1)c1ccc(OC[C@H](O)CCl)cc1` (stereo not given in full), for which the Activity in test [1] was 12.4%; in [2], 22.3%; in [3], 20.1%; in [4], 27.1%; in test [5] it was less than 5%; in test [6] it was less than 5%. In addition, the Activity in [7] was less than 5%; in test [8] it was less than 5%; in [9], 39.6%; in test [10], 47.1%.

In the case of `CC(C)(c1ccc(OCC2CCN(C(=O)CCCCCOc3ccc4c(c3)C(=O)N(C3CCC(=O)NC3=O)C4=O)CC2)cc1)c1ccc(OC[C@H](O)CCl)cc1` (stereo not given in full), the Activity is 5.8% in test [1]; 43.6% in test [2]; 29.9% in test [3]; 67.4% in [4]; 5.9% in test [5]; 20% in [6]. Further, the Activity in test [7] was less than 5%; in test [8], 34%; in [9] it was 86.1%; in test [10] it was 95.5%.

With `CC(C)(c1ccc(OCC2CCN(C(=O)CCCCCNc3cccc4c3C(=O)N(C3CCC(=O)NC3=O)C4=O)CC2)cc1)c1ccc(OC[C@H](O)CCl)cc1` (stereo not given in full), the Activity is 11.7% in test [1]; 19.7% in test [2]; 28.4% in test [3]; 25.5% in test [4]; less than 5% in [5]; 11.7% in test [6]. Moreover, the Activity in [7] is 21.6%; in test [8], 36.1%; in test [9], 65.1%; in test [10] it was 68.9%.

For the compound `CC(C)(c1ccc(OCC2CCN(C3CN(C(=O)CNc4ccc5c(c4)C(=O)N(C4CCC(=O)NC4=O)C5=O)C3)CC2)cc1)c1ccc(OC[C@H](O)CCl)cc1` (stereo not given in full), the Activity in [1], in [2], in [3], in [4], in [5] and in test [6] was less than 5% each time. Also, the Activity was less than 5% in test [7], less than 5% in test [8], 37% in test [9] and 60.9% in [10].

On to `CC(C)(c1ccc(OCC2CCN(C3CN(C(=O)CCNc4ccc5c(c4)C(=O)N(C4CCC(=O)NC4=O)C5=O)C3)CC2)cc1)c1ccc(OC[C@H](O)CCl)cc1` (stereo not given in full), for which the Activity in [1] was less than 5%; in test [2] it was less than 5%; in test [3], 5%; in [4], less than 5%; in test [5], 32.7%; in test [6], 19.8%. Also, the Activity in [7] was found to be 20%; in [8], 11.9%; in test [9], 14.4%; in test [10], 15.5%.

Consider `CC(C)(c1ccc(OCC2CCN(C(=O)CCCCCCOc3ccc4c(c3)C(=O)N(C3CCC(=O)NC3=O)C4=O)CC2)cc1)c1ccc(OC[C@H](O)CCl)cc1` (stereo not given in full), for which the Activity in test [1] is 20.1%; in test [2] it was 16.4%; in [3], 34.4%; in test [4], 33.9%; in test [5], less than 5%; in test [6] it was 8%. Further, the Activity in test [7] was less than 5%; in test [8], less than 5%; in test [9], 77.9%; in test [10] it was 92.7%.

With `CC(C)(c1ccc(OCC2CCN(C(=O)CCCCCCCNc3cccc4c3C(=O)N(C3CCC(=O)NC3=O)C4=O)CC2)cc1)c1ccc(OC[C@H](O)CCl)cc1` (stereo not given in full), the Activity in [1] is 7.8%; in test [2], 25%; in test [3], 12.5%; in test [4], 52.3%; in test [5], less than 5%; in test [6], less than 5%. In addition, the Activity in test [7] was 8.4%; in [8], 14.3%; in test [9], 32.3%; in test [10], 45.8%.

Take `CC(C)(c1ccc(OCC2CCN(C(=O)CCCCNc3ccc4c(c3)C(=O)N(C3CCC(=O)NC3=O)C4=O)CC2)cc1)c1ccc(OC[C@H](O)CCl)cc1` (stereo not given in full): the Activity in [1] amounted to 8.6%; in [2], 21.6%; in [3], 11.8%; in test [4] it was 9.3%; in test [5] it was 8.5%; in test [6] it was 13.7%. Besides, the Activity in test [7] amounted to 5.9%; in test [8], 8.2%; in test [9], 86%; in [10], 89.3%.

On to `CC(C)(c1ccc(OCC2CCN(C(=O)CCCCCCNc3ccc4c(c3)C(=O)N(C3CCC(=O)NC3=O)C4=O)CC2)cc1)c1ccc(OC[C@H](O)CCl)cc1` (stereo not given in full), for which the Activity in test [1] was 14.4%; in test [2] it was 33.1%; in test [3], 8.6%; in test [4], 30.7%; in test [5] it was less than 5%; in test [6] it was 14.2%. The Activity in test [7] is less than 5%; in test [8], less than 5%; in [9] it was 81%; in test [10], 79.8%.

For the compound `CC(C)(c1ccc(OCC2CCN(C(=O)CCCC#Cc3ccc4c(c3)C(=O)N(C3CCC(=O)NC3=O)C4=O)CC2)cc1)c1ccc(OC[C@H](O)CCl)cc1` (stereo not given in full), the Activity in test [1] is 24.6%; in test [2], less than 5%; in [3], 48.2%; in [4], 18.1%; in test [5] it was 8.4%; in test [6] it was less than 5%. In addition, the Activity is 7.4% in [7], 5.2% in [8], 28.5% in test [9] and 34% in test [10].

In the case of `CC(C)(c1ccc(OCC2CCN(C3CN(C(=O)CCCNc4ccc5c(c4)C(=O)N(C4CCC(=O)NC4=O)C5=O)C3)CC2)cc1)c1ccc(OC[C@H](O)CCl)cc1` (stereo not given in full), the Activity was 12.1% in test [1]; 10.2% in [2]; 5% in [3]; less than 5% in [4]; 6.8% in test [5]; 25.4% in test [6]. Besides, the Activity in [7] is less than 5%; in [8], 24.2%; in test [9], 57.5%; in test [10], 76.7%.
